From patent US10604523B2, “1-aryl-4-methyl-[1,2,4]triazolo[4,3-a]quinoxaline derivatives” (Janssen Pharmaceutica NV, priority 2011, dated 2020)

Tests used:
[1] = target: T1, Rat recombinant PDE10A (rPDE10A2) (Rattus norvegicus, UniProt Q9QYJ6); assay: In vitro assay PDE10A (SPA, 3H-cAMP); type: biochemical; conditions: read-out: PIC50 PDE10 (converted)
T1 construct: made in house; host or cells: Sf9 insect cells (baculovirus)
T1 sequence (Q9QYJ6 1-794): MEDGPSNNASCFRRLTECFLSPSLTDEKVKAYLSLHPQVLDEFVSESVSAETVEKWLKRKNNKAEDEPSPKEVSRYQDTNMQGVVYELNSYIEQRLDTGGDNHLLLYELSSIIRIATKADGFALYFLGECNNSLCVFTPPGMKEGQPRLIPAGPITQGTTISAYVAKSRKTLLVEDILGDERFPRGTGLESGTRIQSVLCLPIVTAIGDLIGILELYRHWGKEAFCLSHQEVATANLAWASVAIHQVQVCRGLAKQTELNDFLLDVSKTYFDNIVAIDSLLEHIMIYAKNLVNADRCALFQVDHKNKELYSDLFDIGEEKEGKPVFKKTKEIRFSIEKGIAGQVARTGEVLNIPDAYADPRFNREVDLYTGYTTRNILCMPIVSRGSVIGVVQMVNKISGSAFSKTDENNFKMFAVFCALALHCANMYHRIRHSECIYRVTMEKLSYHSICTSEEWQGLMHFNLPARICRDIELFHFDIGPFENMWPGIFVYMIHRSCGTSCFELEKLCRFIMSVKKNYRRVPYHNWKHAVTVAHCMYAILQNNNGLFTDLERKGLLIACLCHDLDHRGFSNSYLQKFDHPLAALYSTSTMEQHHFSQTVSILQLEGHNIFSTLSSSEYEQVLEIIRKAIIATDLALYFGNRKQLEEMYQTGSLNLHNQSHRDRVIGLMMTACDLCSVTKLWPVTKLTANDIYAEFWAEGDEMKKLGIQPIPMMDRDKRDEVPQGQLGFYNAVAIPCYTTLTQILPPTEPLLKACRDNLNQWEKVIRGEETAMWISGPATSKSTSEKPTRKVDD

[2] = tested on: Apomorphine-induced agitation; assay: Reversal of Apomorphine-induced Agitation in Rats (APO); type: in vivo, rat; conditions: for PO Max effect (cumulative agitation score over 60 min) / SC Max effect (cumulative agitation score over 60 min): apomorphine 1.0 mg/kg i.v.; for PO LAD (lowest active dose) / SC LAD (lowest active dose): lowest dose at which ≥67% tested animals respond; for SC Dose at max effect / SC Max effect (cumulative agitation score over 60 min) / SC LAD (lowest active dose): subcutaneous route
Procedure: Apomorphine (1.0 mg/kg, i.v.)-induced agitation was scored every 5 min over the first hour after injection of apomorphine. The score system was: (3) pronounced, (2) moderate, (1) slight, and (0) absent. […] For the present purpose, the cumulative agitation score over the whole 60-min observation period was used as a measure to describe the maximum effect (Max effect).

[3] = target: T2, Human recombinant PDE2A (hPDE2A) (Homo sapiens, UniProt O00408); assay: In vitro assay PDE2A (SPA, 3H-cGMP); type: biochemical; conditions: read-out: pIC50 PDE2 (converted)
T2 construct: made in house; host or cells: Sf9 insect cells (baculovirus)
T2 sequence (O00408 whole entry): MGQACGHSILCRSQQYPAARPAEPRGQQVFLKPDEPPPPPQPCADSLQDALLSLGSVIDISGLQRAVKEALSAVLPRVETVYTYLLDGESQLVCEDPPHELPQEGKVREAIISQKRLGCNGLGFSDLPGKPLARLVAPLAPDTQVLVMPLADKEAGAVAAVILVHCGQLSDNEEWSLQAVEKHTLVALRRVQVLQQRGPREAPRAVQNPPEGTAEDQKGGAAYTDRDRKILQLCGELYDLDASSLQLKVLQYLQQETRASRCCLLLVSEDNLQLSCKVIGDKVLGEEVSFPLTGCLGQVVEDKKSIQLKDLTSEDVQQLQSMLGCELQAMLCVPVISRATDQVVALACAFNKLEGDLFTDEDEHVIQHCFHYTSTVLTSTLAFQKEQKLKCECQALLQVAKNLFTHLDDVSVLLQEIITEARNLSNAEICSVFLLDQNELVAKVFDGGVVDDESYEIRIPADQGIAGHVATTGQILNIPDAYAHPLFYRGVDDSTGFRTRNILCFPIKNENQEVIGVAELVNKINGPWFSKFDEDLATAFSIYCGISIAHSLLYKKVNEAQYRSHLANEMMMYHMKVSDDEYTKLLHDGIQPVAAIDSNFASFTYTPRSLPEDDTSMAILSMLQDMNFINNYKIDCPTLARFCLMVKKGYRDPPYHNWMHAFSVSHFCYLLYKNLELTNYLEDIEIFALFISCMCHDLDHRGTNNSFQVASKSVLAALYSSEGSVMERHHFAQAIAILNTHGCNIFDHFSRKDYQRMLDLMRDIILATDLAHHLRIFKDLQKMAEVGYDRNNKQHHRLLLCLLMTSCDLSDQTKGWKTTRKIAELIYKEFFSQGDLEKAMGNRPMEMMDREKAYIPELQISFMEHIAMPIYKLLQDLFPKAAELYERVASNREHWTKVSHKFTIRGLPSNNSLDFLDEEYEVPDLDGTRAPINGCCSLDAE

SMILES | IC50 [1] [nM] | IC50 [3] [nM] | other results
Cc1nc2ccc(C(=O)NCCO)cc2n2c(-c3ccccc3Cl)nnc12 [Compound B-42] | 29.5 | 1.51 | PO Dose at Max Effect [2]: 10 mg/kg; PO Max effect (cumulative agitation score over 60 min) [2]: 22; PO LAD (lowest active dose) [2]: > 10 mg/kg
CCOc1ccc(Cl)c(-c2nnc3c(C)nc4ccc(CN5CCC(F)CC5)cc4n23)c1 [Compound B-140] | 282 | 34.7 | SC Dose at max effect [2]: 10 mg/kg; SC Max effect (cumulative agitation score over 60 min) [2]: 24; SC LAD (lowest active dose) [2]: > 10 mg/kg
Cc1nc2ccc(C(=O)NCc3ccccn3)cc2n2c(-c3ccc(Cl)cc3Cl)nnc12 [Compound B-108] | 36.3 | 20.4 | PO Dose at Max Effect [2]: 10 mg/kg; PO Max effect (cumulative agitation score over 60 min) [2]: 19; PO LAD (lowest active dose) [2]: > 10 mg/kg
Cc1ccc(Cl)c(-c2nnc3c(C)nc4ccc(C(=O)NCc5ccccn5)cc4n23)c1 [Compound B-44] | 35.5 | 1.78 | PO Dose at Max Effect [2]: 10 mg/kg; PO Max effect (cumulative agitation score over 60 min) [2]: 21; PO LAD (lowest active dose) [2]: > 10 mg/kg
CCOc1ccc(Cl)c(-c2nnc3c(C)nc4ccc(OCCc5cccnc5)cc4n23)c1 [Compound B-121] | 145 | 33.9 | SC Dose at max effect [2]: 10 mg/kg; SC Max effect (cumulative agitation score over 60 min) [2]: 21; SC LAD (lowest active dose) [2]: > 10 mg/kg
CCCOc1ccc(Cl)c(-c2nnc3c(C)nc4ccc(CN5CCC(O)CC5)cc4n23)c1 [Compound B-129] | 891 | 28.8 | 
Cc1nc2ccc(CN3CCC(N(C)C)CC3)cc2n2c(-c3ccccc3Cl)nnc12 [Compound B-157] | 282 | 57.5 | 
COc1ccc(Cl)c(-c2nnc3c(C)nc4ccc(Br)cc4n23)c1 [Compound B-69] | 77.6 | 6.17 | 
CCCCOc1ccc(Cl)c(-c2nnc3c(C)nc4ccc(OCCc5cccnc5)cc4n23)c1 [Compound B-130] | 977 | 28.8 | 
Cc1nc2ccc(C(=O)NCc3cc(F)ccn3)cc2n2c(-c3ccccc3Cl)nnc12 [Compound B-31] | 8.13 | 0.204 | 
CCNC(=O)c1ccc2c(c1)nc(C)c1nnc(-c3cncc(OC)c3)n12 [Compound B-172] | 7760 | 126 | 
COC1CCCN(Cc2ccc3nc(C)c4nnc(-c5ccccc5Cl)n4c3c2)C1 (stereo not drawn) [Compound B-86] | 38 | 11 | 
Cc1nc2ccc(Br)cc2n2c(-c3cncc(Cl)c3)nnc12 [Compound B-171] | 741 | 117 | 
Cc1nc2ccc(Br)cc2n2c(-c3ccccc3OC(F)(F)F)nnc12 [Compound B-159] | 347 | 60.3 | 
Cc1nc2ccc(N(C)C)cc2n2c(-c3ccccc3Cl)nnc12 [Compound B-87] | 26.9 | 11.2 | 
Cc1nc2ccc(C(=O)C3CC3)cc2n2c(-c3ccccc3Cl)nnc12 [Compound B-144] | 31.6 | 4.47 | 
Cc1nc2ccc(Oc3ccncc3)cc2n2c(-c3ccccc3Cl)nnc12 [Compound B-30, 1-(2-Chlorophenyl)-4-methyl-8-(pyridin-4-yloxy)[1,2,4]triazolo[4,3-a]quinoxaline] | 24.5 | 5.75 | 
CCCCOc1ccc(Cl)c(-c2nnc3c(C)nc4ccc(CN5CCC(F)CC5)cc4n23)c1 [Compound B-132] | 1780 | 29.5 | 
CCNC(=O)c1ccc2c(c1)nc(C)c1nnc(-c3cccnc3OC)n12 [Compound B-180] | 1780 | 204 | 
Cc1nc2ccc(COc3ccccc3)cc2n2c(-c3ccccc3)nnc12 [Compound B-98] | 191 | 14.5 | 
CCCCOc1ccc(Cl)c(-c2nnc3c(C)nc4ccc(N5CCN(C)CC5)cc4n23)c1 [Compound B-26, 1-(5-Butoxy-2-chlorophenyl)-4-methyl-8-(4-methylpiperazin-1-yl) [1,2,4]triazolo-[4,3-a]quinoxaline] | 1260 | 17.4 | 
COCCCc1cncc(-c2nnc3c(C)nc4ccc(CN5CCOCC5)cc4n23)c1 [Compound B-204] | 8130 | 132 | 
Cc1nc2ccc(OCCc3cccnc3)cc2n2c(-c3cc(OC(C)C)ccc3Cl)nnc12 [Compound B-146] | 1020 | 40.7 | 
CCNC(=O)c1ccc2nc(C)c3nnc(-c4cccnc4OC)n3c2c1 [Compound B-123] | 417 | 27.5 | 

SMILES | IC50 [1] [nM] | IC50 [3] [nM] | other results
Cc1nc2ccc(CN3CCN(C)CC3)cc2n2c(-c3cc(OC(C)C)ccc3Cl)nnc12 [Compound B-170] | 3630 | 102 | 
CCCOc1ccc(Cl)c(-c2nnc3c(C)nc4ccc(N5CCN(C)CC5)cc4n23)c1 [Compound B-117] | 912 | 25.1 | 
Cc1nc2ccc(N)cc2n2c(-c3ccccc3Cl)nnc12 [Compound B-27, 1-(2-Chlorophenyl)-4-methyl[1,2,4]triazolo[4,3-a]quinoxalin-8-amine] | 29.5 | 2.34 | 
CCNC(=O)c1ccc2nc(C)c3nnc(-c4ccc(C)nc4)n3c2c1 [Compound B-182] | 4170 | 240 | 
Cc1nc2ccc(CN3CCC(O)CC3)cc2n2c(-c3cc(OC(C)C)ccc3Cl)nnc12 [Compound B-136] | 1260 | 31.6 | 
CCOC(=O)c1ccc2c(c1)nc(C)c1nnc(-c3ccccc3Cl)n12 [Compound B-1b, ethyl 1-(2-chlorophenyl)-4-methyl[1,2,4]triazolo[4,3-a]quinoxaline-7-carboxylate] | 447 | 51.3 | 
Cc1nc2ccc(CN3CCOCC3)cc2n2c(-c3cncc(OCCCF)c3)nnc12 [Compound B-196] | 8710 | 64.6 | 
COc1ccc2nc(C)c3nnc(-c4cnccc4C)n3c2c1 [Compound B-173] | 977 | 135 | 
Cc1nc2ccc(C(=O)OCc3ccccc3)cc2n2c(-c3ccccc3)nnc12 [Compound B-8, Benzyl 4-methyl-1-phenyl[1,2,4]triazolo[4,3-a]quinoxaline-8-carboxylate] | 380 | 20.4 | 
Cc1cncc(-c2nnc3c(C)nc4ccc(C(F)(F)F)cc4n23)c1 [Compound B-162] | 871 | 67.6 | 
CCCCOc1ccc(Cl)c(-c2nnc3c(C)nc4ccc(CNC5CCC5)cc4n23)c1 [Compound B-126] | 2450 | 28.2 | 
CCCOc1ccc(Cl)c(-c2nnc3c(C)nc4ccc(CN5CCN(C)CC5)cc4n23)c1 [Compound B-137] | 1000 | 33.1 | 
Cc1nc2ccc(CN3CCC(F)CC3)cc2n2c(-c3cncc(OCC4CC4)c3)nnc12 [Compound B-199] | 3890 | 89.1 | 
COCCC1CN(Cc2ccc3nc(C)c4nnc(-c5ccccc5Cl)n4c3c2)CCO1 (stereo not drawn) [Compound B-106] | 89.1 | 19.5 | 
Cc1cncc(-c2nnc3c(C)nc4ccc(Br)cc4n23)c1 [Compound B-154] | 380 | 52.5 | 
Cc1ccncc1-c1nnc2c(C)nc3ccc(C(=O)C4CC4)cc3n12 [Compound B-24, Cyclopropyl [4-methyl-1-(4-methylpyridin-3-yl) [1,2,4]triazolo[4,3-a]quinoxalin-8-yl]methanone] | 525 | 39.8 | 
CCCOc1ccc(Cl)c(-c2nnc3c(C)nc4ccc(OCCc5cccnc5)cc4n23)c1 [Compound B-116] | 513 | 24.5 | 
CCOCc1cncc(-c2nnc3c(C)nc4ccc(CN5CCOCC5)cc4n23)c1 [Compound B-194] | 7760 | 29.5 | 
CCNC(c1ccc2nc(C)c3nnc(-c4ccccc4Cl)n3c2c1)C(F)(F)F (stereo not drawn) [Compound B-64] | 30.2 | 5.75 | 
CCNC(=O)c1ccc2nc(C)c3nnc(-c4ccccn4)n3c2c1 [Compound B-181] | 5500 | 240 | 
COc1cncc(-c2nnc3c(C)nc4ccc(Br)cc4n23)c1 [Compound B-124] | 355 | 27.5 | 
CCC(=O)Nc1ccc2nc(C)c3nnc(-c4ccccc4Cl)n3c2c1 [Compound B-28, N-[1-(2-Chlorophenyl)-4-methyl[1,2,4]triazolo[4,3-a]quinoxalin-8-yl]propanamide] | 13.2 | 2.29 | 
Cc1nc2ccc(C(=O)OCCCc3ccccc3)cc2n2c(-c3ccccc3)nnc12 [Compound B-158] | 603 | 60.3 | 
Cc1nc2ccc(CNC3CCC3)cc2n2c(-c3cncc(OCC4CC4)c3)nnc12 [Compound B-207] | > 10000 | 240 | 
